{
  "source": "paper PMC4603724",
  "about": "(ACS Medicinal Chemistry Letters, 2015)",
  "biological_target": "protein disulfide isomerase (PDI) (Homo sapiens, UniProt P07237)",
  "sequence (P07237 18-137)": "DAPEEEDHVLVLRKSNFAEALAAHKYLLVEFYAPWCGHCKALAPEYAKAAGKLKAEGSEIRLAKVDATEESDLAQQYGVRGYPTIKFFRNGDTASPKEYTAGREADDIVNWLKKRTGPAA",
  "assay": "1H-15N HSQC NMR chemical shift perturbation",
  "type": "binding",
  "data": [
    {"smiles": "O=C1C=C2C=C[C@@H]3C[C@@]2(O1)[C@H]1CCCCN31", "note": "[IBS141, securinine]", "values": [
      {"measurement": "Kd", "value": "758 ± 129", "unit": "µM"}
    ]}
  ]
}
